Data on 20 compounds can be found in patent US20060089378A1 (priority 2004, published 2006).

Assay [1] concerns the target T1, Cannabinoid CB1 Receptor (Homo sapiens, UniProt P21554).
T1 construct: expressed in transfected cells
Description: Binding assay for CB1 agonists or inverse agonists (radioligand competition, membranes of transfected SK-N-MC cells).

The target in assay [2] is CB1 receptor (human) (Homo sapiens, UniProt P21554). Description: cell-based.
For assay [3], the target named is T2, Cannabinoid CB2 Receptor (Homo sapiens, UniProt P34972).
T2 construct: expressed in transfected cells
T2 sequence (P34972 whole entry): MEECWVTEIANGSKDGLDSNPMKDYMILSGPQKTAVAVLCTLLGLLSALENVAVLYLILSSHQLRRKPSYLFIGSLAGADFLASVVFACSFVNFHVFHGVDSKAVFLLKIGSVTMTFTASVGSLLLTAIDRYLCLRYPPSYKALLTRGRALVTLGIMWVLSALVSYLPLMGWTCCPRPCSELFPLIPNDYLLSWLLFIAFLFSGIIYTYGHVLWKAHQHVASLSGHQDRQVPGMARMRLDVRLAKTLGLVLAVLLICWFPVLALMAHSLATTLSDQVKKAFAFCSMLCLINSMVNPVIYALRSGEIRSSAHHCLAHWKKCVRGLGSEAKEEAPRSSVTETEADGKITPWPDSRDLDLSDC
Briefly: Binding assay for CB2 agonists or inverse agonists (radioligand competition, membranes of transfected SK-N-MC cells). The settings on record: for inhibition at 0.2 µM: read-out: Cannabinoid CB2 Receptor Binding percent inhibition. Background: In a radioligand displacement assay an active substance lowers the binding of a labelled ligand.

Where [4] appears, read: human CB1, SK-N-MC cell membranes, calculated by linear regression from percent inhibition at various concentrations, read-out: Cannabinoid CB1 Receptor Binding IC50.
The mark [5] stands for this setting: test concentration of 0.2 μM, compounds without an IC50 binding value.

Like-named read-outs stand apart in the source and are kept apart here.

The IC50 is the midpoint of a concentration-inhibition curve. One may read the EC50 as the midpoint of the concentration-response curve. Broadly, the inhibition is the percentage by which the read-out fell short of the control.

CB1 receptor (human), sequence (P21554 whole entry): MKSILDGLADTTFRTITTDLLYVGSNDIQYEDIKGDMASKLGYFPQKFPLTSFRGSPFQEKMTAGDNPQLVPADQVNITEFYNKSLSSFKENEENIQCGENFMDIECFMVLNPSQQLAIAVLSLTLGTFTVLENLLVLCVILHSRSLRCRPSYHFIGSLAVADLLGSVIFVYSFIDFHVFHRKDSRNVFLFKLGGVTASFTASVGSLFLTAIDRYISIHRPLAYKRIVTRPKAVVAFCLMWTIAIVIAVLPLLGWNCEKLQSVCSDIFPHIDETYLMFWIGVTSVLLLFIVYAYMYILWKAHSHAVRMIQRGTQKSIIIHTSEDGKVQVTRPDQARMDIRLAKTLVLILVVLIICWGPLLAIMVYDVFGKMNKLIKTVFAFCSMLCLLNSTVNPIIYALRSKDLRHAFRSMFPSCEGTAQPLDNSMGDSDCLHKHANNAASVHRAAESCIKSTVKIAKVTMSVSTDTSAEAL
T1 sequence (P21554 whole entry): as above

With `CCNC(=O)N1C/C(=C\c2ccc(F)cc2)c2c(c(C(=O)NN3CCCCC3)nn2-c2ccc(Cl)cc2Cl)C1` [Cpd 34, (7E)-1-(2,4-dichloro-phenyl)-7-(4-fluoro-benzylidene)-1,4,6,7-tetrahydro-pyrazolo[4,3-c]pyridine-3,5-dicarboxylic acid 5-ethylamide 3-piperidin-1-ylamide], the IC50 in assay [1] was found to be 50 nM. This compound also displayed an EC50 in assay [2] of 9 nM. For the same compound, the inhibition at 0.2 µM in assay [3] came to 12%.
As for `CC(C)(C)OC(=O)N1CCc2c(c(C(=O)N[C@H]3C4(C)CCC(C4)C3(C)C)nn2Cc2ccccc2)C1` (stereo partly drawn) [Cpd 104, 1-benzyl-3-[(2S)-1,3,3-trimethyl-bicyclo[2.2.1]hept-2-ylcarbamoyl]-1,4,6,7-tetrahydro-pyrazolo[4,3-c]pyridine-5-carboxylic acid tert-butyl ester], the IC50 in assay [1] (setting [4]) was 500 nM; in assay [3] it was 20 nM. Besides, in assay [2] (one compound concentration, β-galactosidase activity relative to vehicle treated cells), the “CB1 Receptor Functional Activity (change in functional activity, CRE β-gal)” value was −11%.
For “(7E)-1-(4-chloro-phenyl)-5-methanesulfonyl-7-(4-methoxy-benzylidene)-4,5,6,7-tetrahydro-1H-pyrazolo[4,3-c]pyridine-3-carboxylic acid (1-pyridin-2-yl-ethyl)-amide [Cpd 78]”, the IC50 in assay [1] (setting [4]) was 7 nM. Moreover, the EC50 in assay [2] (SK-N-MC cells expressing CRE β-gal and human CB1, forskolin, β-galactosidase activity, varying compound concentrations, read-out: CB1 Receptor Functional Inverse Agonist EC50) worked out at 3 nM. In assay [3] (setting [5]), the “Cannabinoid CB2 Receptor Binding percent inhibition” value is recorded as 17%.
Compound `COC(=O)N1C/C(=C\c2ccc(F)cc2)c2c(c(C(=O)N[C@H](C)C3CCCCC3)nn2-c2ccc(Cl)cc2Cl)C1` [Cpd 13, (7E)-3-[(1R)-1-cyclohexyl-ethylcarbamoyl]-1-(2,4-dichloro-phenyl)-7-(4-fluoro-benzylidene)-1,4,6,7-tetrahydro-pyrazolo[4,3-c]pyridine-5-carboxylic acid methyl ester] displayed an IC50 in assay [1] of 2 nM. The half-maximal effective concentration (EC50) in assay [2] came out at 10 nM. The inhibition at 0.2 µM in assay [3] (setting [5]) was determined as 11%.
In turn, `CC(=O)N1C/C(=C\c2ccc(F)cc2)c2c(c(C(=O)NN3CCCCC3)nn2-c2ccc(Cl)cc2Cl)C1` [Cpd 10, (7E)-5-acetyl-1-(2,4-dichloro-phenyl)-7-(4-fluoro-benzylidene)-4,5,6,7-tetrahydro-1H-pyrazolo[4,3-c]pyridine-3-carboxylic acid piperidin-1-ylamide] gave an IC50 in assay [1] of 70 nM. Moreover, the EC50 in assay [2] came out at 20 nM. In addition, in assay [3], the inhibition at 0.2 µM is 63%.
Take `CCNC(=O)N1C/C(=C\c2ccc(F)cc2)c2c(c(C(=O)N[C@H](C)c3ccccc3)nn2-c2ccc(Cl)cc2Cl)C1` [Cpd 19, (7E)-1-(2,4-dichloro-phenyl)-7-(4-fluoro-benzylidene)-1,4,6,7-tetrahydro-pyrazolo[4,3-c]pyridine-3,5-dicarboxylic acid 5-ethylamide 3-[(1R)-(1-phenyl-ethyl)-amide]]: the IC50 in assay [1] is 7 nM. In addition, the EC50 in assay [2] was 5 nM. The inhibition at 0.2 µM in assay [3] came out at 10%.
For `C[C@@H](NC(=O)c1nn(-c2ccc(Cl)cc2Cl)c2c1CNC/C2=C\c1ccc(F)cc1)c1ccccn1` [Cpd 139, (7E)-1-(2,4-dichloro-phenyl)-7-(4-fluoro-benzylidene)-4,5,6,7-tetrahydro-1H-pyrazolo[4,3-c]pyridine-3-carboxylic acid [(1R)-1-pyridin-2-yl-ethyl]-amide], the IC50 in assay [1] stood at 40 nM. The compound also had an EC50 in assay [2] of 30 nM. For the same compound, the inhibition at 0.2 µM in assay [3] came to 16%.
In the case of `C[C@@H](NC(=O)c1nn(-c2ccc(Cl)cc2)c2c1CN(C(=O)OC(C)(C)C)C/C2=C\c1ccc(F)cc1)c1ccccc1` [Cpd 57, (7E)-1-(4-chloro-phenyl)-7-(4-fluoro-benzylidene)-3-[(1R)-1-phenyl-ethylcarbamoyl]-1,4,6,7-tetrahydro-pyrazolo[4,3-c]pyridine-5-carboxylic acid tert-butyl ester], the IC50 in assay [1] came out at 30 nM. Moreover, a half-maximal effect in assay [2] (EC50) was put at 20 nM. The inhibition at 0.2 µM in assay [3] (setting [5]) amounted to 13%.
In assay [1], `C[C@@H](NC(=O)c1nn(-c2ccc(Cl)cc2)c2c1CN(S(C)(=O)=O)C/C2=C\c1ccc(F)cc1)c1ccccc1` [Cpd 71, (7E)-1-(4-chloro-phenyl)-7-(4-fluoro-benzylidene)-5-methanesulfonyl-4,5,6,7-tetrahydro-1H-pyrazolo[4,3-c]pyridine-3-carboxylic acid [(1R)-1-phenyl-ethyl]-amide] gave an IC50 of 4 nM. In addition, a half-maximal effect in assay [2] (EC50) was put at 1 nM. Moreover, in assay [3], the inhibition at 0.2 µM was determined as 3%.
Turning to `CCNC(=O)N1C/C(=C\c2ccc(F)cc2)c2c(c(C(=O)N[C@H](C)c3ccccc3)nn2-c2ccc(Cl)cc2)C1` [Cpd 69, (7E)-1-(4-chloro-phenyl)-7-(4-fluoro-benzylidene)-1,4,6,7-tetrahydro-pyrazolo[4,3-c]pyridine-3,5-dicarboxylic acid 5-ethylamide 3-{[(1R)-1-phenyl-ethyl]-amide}], in assay [1], the IC50 was 30 nM. In addition, the EC50 in assay [2] amounted to 5 nM. Besides, in assay [3], the inhibition at 0.2 µM came out at 0%.
Take `CC(NC(=O)c1nn(-c2ccc(Cl)cc2)c2c1CNC/C2=C\c1ccc(F)cc1)c1ccccn1` (stereo not drawn) [Cpd 75, (7E)-1-(4-chloro-phenyl)-7-(4-fluoro-benzylidene)-4,5,6,7-tetrahydro-1H-pyrazolo[4,3-c]pyridine-3-carboxylic acid (1-pyridin-2-yl-ethyl)-amide]: the IC50 in assay [1] worked out at 200 nM. Besides, in assay [2], the EC50 was 40 nM. Besides, the inhibition at 0.2 µM in assay [3] came to 0%.
As to `COc1ccc(/C=C2\CN(C(=O)OC(C)(C)C)Cc3c(C(=O)NC(C)c4ccccn4)nn(-c4ccc(Cl)cc4Cl)c32)cc1` (stereo not drawn) [Cpd 36, (7E)-1-(2,4-dichloro-phenyl)-7-(4-methoxy-benzylidene)-3-(1-pyridin-2-yl-ethylcarbamoyl)-1,4,6,7-tetrahydro-pyrazolo[4,3-c]pyridine-5-carboxylic acid tert-butyl ester], the IC50 in assay [1] is 40 nM. In addition, a half-maximal effect in assay [2] (EC50) was put at 6 nM. The inhibition at 0.2 µM in assay [3] is 27%.
On to `COC(=O)N1C/C(=C\c2ccc(OC)cc2)c2c(c(C(=O)NN3CCCCC3)nn2-c2ccc(Cl)cc2Cl)C1` [Cpd 55, (7E)-1-(2,4-dichloro-phenyl)-7-(4-methoxy-benzylidene)-3-(piperidin-1-ylcarbamoyl)-1,4,6,7-tetrahydro-pyrazolo[4,3-c]pyridine-5-carboxylic acid methyl ester], for which, in assay [1], the IC50 turned out to be 5 nM. In assay [2], this compound yielded a concentration giving a half-maximal response (EC50) of 2 nM. Also, the inhibition at 0.2 µM in assay [3] is 66%.
Take `CC(C)(C)OC(=O)N1C/C(=C\c2ccc(F)cc2)c2c(c(C(=O)NN3CCCCC3)nn2-c2ccc(Cl)cc2Cl)C1` [Cpd 9, (7E)-1-(2,4-dichloro-phenyl)-7-(4-fluoro-benzylidene)-3-(piperidin-1-ylcarbamoyl)-1,4,6,7-tetrahydro-pyrazolo[4,3-c]pyridine-5-carboxylic acid tert-butyl ester]: the inhibition at 0.2 µM is 55% in assay [1] (read-out: Cannabinoid CB1 Receptor Binding percent inhibition) and 8% in assay [3]. The EC50 in assay [2] came to 20 nM.
For `COC(=O)N1C/C(=C\c2ccc(F)cc2)c2c(c(C(=O)N[C@H](C)c3ccccc3)nn2-c2ccc(Cl)cc2Cl)C1` [Cpd 1, (7E)-1-(2,4-dichloro-phenyl)-7-(4-fluoro-benzylidene)-3-[(1R)-1-phenyl-ethyl-carbamoyl]-1,4,6,7-tetrahydro-pyrazolo[4,3-c]pyridine-5-carboxylic acid methyl ester], the IC50 in assay [1] worked out at 3 nM. The EC50 in assay [2] amounted to 1 nM. In assay [3], the inhibition at 0.2 µM was determined as 26%.
The compound `CC(NC(=O)c1nn(-c2ccc(Cl)cc2Cl)c2c1CNC/C2=C\c1ccc(F)cc1)c1ccccn1` (stereo not drawn) [Cpd 21, (7E)-1-(2,4-dichloro-phenyl)-7-(4-fluoro-benzylidene)-4,5,6,7-tetrahydro-1H-pyrazolo[4,3-c]pyridine-3-carboxylic acid (1-pyridin-2-yl-ethyl)-amide] showed an IC50 in assay [1] of 50 nM. The compound further came in with an EC50 in assay [2] of 70 nM. The inhibition at 0.2 µM in assay [3] amounted to 5%.
Regarding `CCC(=O)N1CCc2c(c(C(=O)NC3C4(C)CCC(C4)C3(C)C)nn2C2CCCCC2)C1` (stereo not drawn) [Cpd 122, 1-cyclohexyl-5-propionyl-4,5,6,7-tetrahydro-1H-pyrazolo[4,3-c]pyridine-3-carboxylic acid (1,3,3-trimethyl-bicyclo[2.2.1]hept-2-yl)-amide], the IC50 in assay [1] came out at 600 nM; in assay [3], 10 nM. In assay [2], this compound gave an EC50 of 900 nM.
In assay [1], `CCOC(=O)CN1C/C(=C\c2ccc(F)cc2)c2c(c(C(=O)N[C@H](C)c3ccccc3)nn2-c2ccc(Cl)cc2)C1` [Cpd 72, (7E)-[1-(4-chloro-phenyl)-7-(4-fluoro-benzylidene)-3-[(1R)-1-phenyl-ethylcarbamoyl]-1,4,6,7-tetrahydro-pyrazolo[4,3-c]pyridin-5-yl]-acetic acid ethyl ester] displayed an IC50 of 10 nM. The EC50 in assay [2] is 5 nM. For the same compound, the inhibition at 0.2 µM in assay [3] turned out to be 17%.
In turn, `CCOC(=O)CN1C/C(=C\c2ccc(OC)cc2)c2c(c(C(=O)N[C@H](C)c3ccccc3)nn2-c2ccc(Cl)cc2Cl)C1` [Cpd 48, (7E)-[1-(2,4-dichloro-phenyl)-7-(4-methoxy-benzylidene)-3-[(1R)-1-phenyl-ethylcarbamoyl]-1,4,6,7-tetrahydro-pyrazolo[4,3-c]pyridin-5-yl]-acetic acid ethyl ester] registered an IC50 in assay [1] of 4 nM. This compound came in with an EC50 in assay [2] of 0.2 nM. For the same compound, in assay [3], the inhibition at 0.2 µM came to 38%.
Take `COC(=O)N1C/C(=C\c2ccc(F)cc2)c2c(c(C(=O)NN3CCCCC3)nn2-c2ccc(Cl)cc2Cl)C1` [Cpd 11, (7E)-1-(2,4-dichloro-phenyl)-7-(4-fluoro-benzylidene)-3-(piperidin-1-ylcarbamoyl)-1,4,6,7-tetrahydro-pyrazolo[4,3-c]pyridine-5-carboxylic acid methyl ester]: the IC50 in assay [1] came to 50 nM. Further, a half-maximal response in assay [2] (EC50) required 40 nM. Moreover, in assay [3], the inhibition at 0.2 µM came out at 15%.
